Measured values: a melting point compilation (Tetko et al.; mined from patent text by program, amines drawn as free bases though some values may be those of a salt)

Row | melting point | Compound
1 | 122 to 123 °C | COc1cccc(CC(=O)O)c1OCCCc1cn(-c2ccc(NC(=O)C(C)C)cn2)nc1C(C)C
2 | 193 °C | CCOc1cc(C2CC=CN(C(=O)c3ccc(NC(=O)OCCCN(C)C)cc3)N2)ccc1OC (stereo unspecified)
3 | 172 to 175 °C | CCCOCCN(CC)c1ccc(-c2ccc3c(c2)C=C(C(=O)Nc2ccc(CN(C)C4CCOCC4)cc2)CCS3(=O)=O)cc1
4 | 138 to 140 °C | CC(C)(O)C(O)c1ccc(-c2ccc(C(CC3CCOCC3)c3ccc(S(C)(=O)=O)c(Cl)c3)[nH]2)nc1 (stereo unspecified)
5 | 173 °C | NNc1nccc(-c2ccc(OC3CCOCC3)c(Cl)c2)c1Cl
6 | 35 to 37 °C | CCOC(=O)c1ccc2oc(CC)nc2c1
7 | > 300 °C | COC[C@H]1CCCN1NC(=O)Nc1cccc2c1C(=O)c1c-2n[nH]c1-c1ccc(C(=O)N2CCNCC2)s1
8 | 98 to 100 °C | C=CCNC(=O)Oc1cc(-n2c(=O)cc(C(F)(F)F)n(C)c2=O)c(F)cc1Cl
9 | 109 to 110 °C | Cn1c(CCc2cc(C(F)(F)F)cc(C(F)(F)F)c2)c(Cc2c[nH]c3ccccc23)oc1=O
10 | 186 to 188 °C | Cc1ccc([N+](=O)[O-])cc1Nc1nccc(-c2cccnc2)n1
11 | 92 to 94 °C | Clc1ccc(OCc2ccc3ccccc3n2)cc1
12 | 230 to 232 °C | O=c1[nH]c2cc(Cl)cc(Cl)c2c(=O)n1CCc1ccccc1
13 | 253 to 254 °C | COc1cc2nc(N3CCN(c4ccnc(Oc5ccccc5)n4)CC3)nc(N)c2cc1OC
14 | > 300 °C | Cc1nc2c([N+](=O)[O-])cc3nc(O)c(O)nc3c2nc1C
15 | 164 to 166 °C | CCOC(=O)C(=O)Nc1cc(Cl)cc(NC(=O)C(=O)OCC)n1
16 | 99 to 102 °C | CSc1nc(Cc2ccccc2N)n[nH]1
17 | 128 to 130 °C | Cn1c2ccccc2c2sc3c(C=O)cccc3c21
18 | 140 to 142 °C | FC(F)(F)C(/C=C/c1ccc(CNc2ccccn2)c(Cl)c1)c1cc(Cl)c(Cl)c(Cl)c1 (stereo unspecified)
19 | 74.5 to 75.5 °C | CCC(=O)OCC(OC(=O)CC)C1OC(OC(=O)CC)C(OC(=O)CC)C1OC(=O)CC (stereo unspecified)
20 | 198 °C | Cc1cccc(-c2n[nH]cc2-c2ccnc(-c3ccc(C#N)cc3)c2)n1
21 | 171 °C | COc1cccc(NC(=O)CN2C(=O)c3ccccc3C2=O)c1
22 | 82 to 83 °C | Cc1ccccc1C(=O)c1c(C)nn(C)c1O
23 | 234 to 235 °C | Clc1ccc2nc(Cl)c(I)n2c1
24 | 52 to 54 °C | CCCOC1CCC(=O)N1 (stereo unspecified)

Row | melting point | Compound
25 | 144 to 148 °C | NCC1CCN(c2nccc(C(N)=O)n2)CC1
26 | 92 to 94 °C | CCOC(=O)Cc1cc(Cl)cc(C(=O)c2ccc(Br)cc2)c1N
27 | 278 to 280 °C | Oc1ccc(O)c(-c2nc3ccc(O)cc3o2)c1
28 | 64 to 67 °C | O=C(NCCN1CCCCC1)N1CCN(c2ccccc2)CC1
29 | 178 to 180 °C | CCn1c2ccccc2n2c(=O)c(C(=O)NC)cnc12
30 | 161 to 163 °C | CC1(C)CC(=O)Nc2cc(N)ccc21
31 | 125 to 127 °C | NCCCCCCCCNc1nc(N)nc2c1ncn2C1C=CC(CO)C1 (stereo unspecified)
32 | 106 to 107 °C | Cc1ccc(-c2n[nH]c3ccccc23)cc1
33 | 182 to 185 °C | COc1nscc1C(=O)O
34 | 240 to 242 °C | Cc1coc2ncnc(N)c12
35 | 85 to 88 °C | COc1ccc(C)cc1-c1ccc(S(=O)(=O)N2c3ccccc3CC2C(=O)NCCOc2ccc(CC(=O)O)cc2)cc1 (stereo unspecified)
36 | 126 to 128 °C | COc1cc(CC#N)ccc1OCCOc1ccc(F)cc1
37 | 34 to 35 °C | CCOC(=O)C(Cc1ccc(C(F)(F)F)cc1)C(=O)c1ccc(F)cc1F (stereo unspecified)
38 | 230 to 231 °C | COc1cc(OC)c2c(=O)[nH]c(-c3ccc(OCCN4CCCC4)c(C)c3)nc2c1
39 | 135 °C | CCOC(=O)c1oc(-c2ccccc2)cc(=O)c1Br
40 | 137 to 138 °C | CONC(=O)Nc1ccc(-c2sc3c(c2CNC(C)c2ccccc2)c(=O)n(C2CCC(O)CC2)c(=O)n3Cc2c(F)cccc2F)cc1 (stereo unspecified)
41 | 97.8 to 99.3 °C | O=C(c1ccc2nonc2c1)N1CCCC1
42 | 121 to 122 °C | COc1cc2nc(SCc3nccc(N(C)C)c3Cl)[nH]c2cc1OC
43 | 179 to 180 °C | NC(=O)c1cc(N(Cc2c(F)c(F)c(C(F)(F)F)c(F)c2F)C(=O)C(F)(F)F)ccc1OC(=O)C(F)(F)F
44 | 78 °C | c1ccc2cc(OCCCNN3CCCCC3)ccc2c1
45 | 95 to 98 °C | COc1ccc(F)cc1C(C)(C)CC(O)(Cc1cc(C)cc(C)n1)C(F)(F)F (stereo unspecified)
46 | 110 °C | CC(C)CCCC(C)C1CCC2C3CC=C4CC(OCCCCCCSC5OC(CO)C(O)C(O)C5O)CCC4(C)C3CCC12C (stereo unspecified)
47 | 201 to 203 °C | NS(=O)(=O)c1ccc(NC(=O)C(=O)N2CCC(Cc3ccc(F)cc3)CC2)cc1
48 | 85 to 87 °C | c1cn(CCCc2ccc(OCc3coc(-c4ccoc4)n3)cc2)cn1

Row | melting point | Compound
49 | 170 °C | CS(=O)(=O)C(=C1CN(C(c2ccccc2)c2ccccc2)C1)c1ccc(Cl)c(Cl)c1
50 | 167 to 168 °C | CC[C@H](C)[C@H](NS(=O)(=O)c1cccc2ccccc12)C(=O)N[C@@H](Cc1c[nH]c2ccccc12)C(=O)O
51 | 161 °C | COc1cc2[nH]c(C(=O)OCc3ccccc3)cc2c(C)c1C
52 | > 300 °C | CN1CCN(c2cc3c(cc2C(F)(F)F)[nH]c(=O)c2n[nH]c(=O)n23)CC1
53 | 240 to 242 °C | CC(C)NC(=O)c1c(NC(=O)c2cc(C(F)(F)F)nn2-c2ncccc2Cl)ccc2cc[nH]c12
54 | 78 to 79 °C | CCOC(=O)c1cc(CN)c[nH]1
55 | 221 to 224 °C | CN(Cc1ccc(NC(=O)C2=Cc3cc(-c4cccc(Cl)c4)ccc3S(=O)(=O)CC2)cc1)C1CCOCC1
56 | 95 to 96 °C | Cc1noc(C)c1Cn1cc(N2C(=O)CN(CCc3ccccc3)C2=O)cn1
57 | 83 to 86 °C | C=CCNC1=NS(=O)(=O)N=C1NCCSCc1ccc(CN(C)C)o1
58 | 160 to 162 °C | COc1cc2c(Cl)c(C#N)cnc2cc1F
59 | 122 to 125 °C | CC(C)(CC(=O)O)c1ccccc1SSc1ccccn1
60 | 141 to 143 °C | NC(=O)n1ccc(-c2ccc(Oc3ccc(F)cc3)cc2)n1
61 | 253 °C | CN(c1cccc2cc(-c3nccs3)[nH]c12)S(=O)(=O)c1ccsc1CS(C)(=O)=O
62 | 54 °C | C#CCN1CCCc2ccc(OC(=O)NCCCCCCC)cc21
63 | 204 to 206 °C | O=S1(=O)N=CN(C2CC2)c2cc(Br)c(C(F)(F)F)cc21
64 | 218 to 219 °C | COc1cc(C(=O)N2Cc3ccc(C(=O)NCc4ccc(Cl)cc4)n3Cc3ccccc32)ccc1-c1ccccc1C
65 | 160 to 161 °C | CC1(C)Oc2ccc(C#N)cc2C(CC(=O)N2CCCCC2)C1O (stereo unspecified)
66 | 232 to 233 °C | CC(C)c1nc(Cc2ccccc2)c2c(c1O)COC2
67 | 149 to 150 °C | CC1Sc2nccn2C1(C)C(O)C=Cc1ccco1 (stereo unspecified)
68 | 59 to 61 °C | COc1cc(C(F)(F)F)ccc1C#N
69 | 122 to 125 °C | CN(C)CCNC(=O)c1ccc(-c2ccc3nnn(Cc4ccc5ncccc5c4)c3n2)cc1
70 | 112 to 114 °C | CCCCN(C)C(=O)CSCCCCCOc1ccc(C2=C(c3ccccc3)CCCc3cc(O)ccc32)cc1
71 | 140 to 142 °C | NS(=O)(=O)c1ccc(-n2nc(C(F)(F)F)cc2-c2ccc(-c3cscn3)c(C(F)(F)F)c2)cc1F
72 | 99 to 100 °C | Cc1c(NC(=O)CC(C)(C)C)cc2c(c1C)OC(C)(C)C2(O)CCc1ccccc1 (stereo unspecified)

Row | melting point | Compound
73 | 88 to 91 °C | CCOC(=O)C(C)=Cc1ccc2cc[nH]c2c1
74 | 153 to 155 °C | O=C1N(c2ccc(I)cc2)CCCC1(Cl)Cl
75 | 196 to 198 °C | COc1nc2ncnc(NCc3ccco3)c2[nH]1
76 | 117 to 119 °C | CC(C)CC(=O)OC(C)OC(=O)NC1(C(=O)O)CC1 (stereo unspecified)
77 | 189 to 193 °C | COc1cc2ncnc(N3CCC(C(O)CN4CCC(C)NS4(=O)=O)CC3)c2cc1OC (stereo unspecified)
78 | 167 to 168 °C | Clc1cc(-c2c(-c3ccccc3)nn3ccccc23)ccn1
79 | 183 °C | Nc1cccc2c1C1CCCCN1C2=O (stereo unspecified)
80 | 300 to 320 °C | Cc1c(-c2ccccc2)sc2nc(N3CCOCC3)[nH]c(=O)c12
81 | 283 to 286 °C | Cc1ccc(N2C(=O)C(O)=C(C(=O)c3ccc(C4CCCCC4)cc3)C2c2ccc(OC(F)(F)F)cc2)nn1 (stereo unspecified)
82 | 100 to 101 °C | CCCCCCCNC(=O)N(C)c1cccc(-c2ccc(CCC(=O)O)cc2OC)c1
83 | 196 to 198 °C | CC(=O)NC1CCN(c2ccc(Cl)cn2)CC1
84 | 105 to 125 °C | O=C1CC=C2N1CCN1C(=O)C[C@H]3CCCC[C@]231 (relative stereo)
85 | 146 to 148 °C | COC(=O)c1ccc(OCC2CN(c3ccc(Cl)cc3)C(=O)O2)cc1 (stereo unspecified)
86 | 182 °C | CC1(C)Oc2ccc(C#N)cc2[C@@H](NC2=CC(=O)OC2)[C@@H]1O (relative stereo)
87 | 242 °C | Cc1nc[nH]c1CN1CCC(Nc2nc3ccccc3n2Cc2ccco2)CC1
88 | 252 to 254 °C | CCC1(SC)CCC2C3CCC4=CC(=O)C=CC4(C)C3(F)C(O)CC21C (stereo unspecified)
89 | 112 to 114 °C | COc1ccc(Oc2ccccc2)c(N)c1
90 | 140 to 146 °C | COc1ccc(Cc2ncc(CO)c3cc(OC)c(OC)cc23)cc1OC
91 | 102 to 104 °C | CCCCCCCCCCOc1ccc(Oc2cccc(C(=O)O)c2)cc1CCC(=O)O
92 | 128 to 130 °C | O=C1CC2(CCCC2)CC(=O)N1CCCCN1CCN(c2nsc3ccccc23)CC1
93 | 133 to 136 °C | CC(=Cc1ccc(Br)cc1)c1ccc2c(C)c(C)c(C)c(C)c2c1
94 | 72 to 74 °C | CCOC(=O)C(=O)c1ccc(C)[nH]1
95 | 245 to 246 °C | C=CCCn1cnc2c1c(=O)[nH]c(=O)n2C
96 | 172 to 174 °C | COc1cc(C(C)=O)ccc1OCCCN1CCN(c2csc3cc(F)ccc23)CC1

Row | Compound | melting point
97 | O=C(C1CO1)C(Cl)(Cl)Cl (stereo unspecified) | 92 to 95 °C
98 | CP(=O)(O)CC1CC(Cl)=NO1 (stereo unspecified) | 116 °C
99 | Clc1ccc2c(c1)CNc1ccccc1O2 | 123 to 125 °C
100 | Cc1cc(C2=NOC(c3cc(Cl)cc(Cl)c3)(C(F)(F)F)C2)ccc1C(=O)N(C)C1CCCS1 (stereo unspecified) | 146 to 151 °C
101 | COC(=O)c1cc(CI)on1 | 91 to 95 °C
